Laboratory results from patent US11033642B2, “Multidentate bifunctional chelating agents for radionuclide complexation in diagnostics and therapy” (UNIVERSITAT ZURICH, priority 2014, dated 2021).

Test: Solubility observed during complexation
Format: physicochemical
Experimental: Ligand II is not soluble either in 0.1 M HCl or in H2O. The complexation was carried out in MeOH using zirconium (IV) acetylacetonate [Zr(acac)4]. A mixture of ligand II (50 mg, 0.058 mmol) and Zr(acac)4 (28.3 mg, 0.058 mmol) in 15 mL MeOH was heated at reflux for 15 h with continuous stirring under N2 atmosphere. The solvent was then removed and the residue was then washed with Et2O (20 mL) and acetone (10 mL). The compound was obtained as off white solid (48 mg, 87%). The compound is it not soluble in common organic solvents including DMSO. […] Therefore due to the limited solubility NMR spectra of the compound could not be obtained. However, the formation of the complex can be confirmed using LC-MS. Elemental analysis calculated for C38H64N8O14Zr.6H2O.(CH3)2CO3C, 44.19, H, 7.42, N, 10.06. Found C, 44.11, H, 7.04, N, 10.16.

solubility in 0.1 M HCl (0.1 M HCl): not soluble
solubility in H2O (H2O): not soluble
SMILES: CC(=O)N(O)CCCCCNC(=O)CCC(=O)N(O)CCCCCNC(=O)CCC(=O)N(O)CCCCCNC(=O)CCC(=O)N(O)CCCCCNC(=O)CCC(=O)O [Ligand II, 4-[5-[[4-[5-[[4-[5-[[4-[5-[acetyl(hydroxy)amino]pentylamino]-4-oxo-butanoyl]-hydroxy-amino]pentylamino]-4-oxo-butanoyl]-hydroxy-amino]pentylamino]-4-oxo-butanoyl]-hydroxy-amino]pentylamino]-4-oxo-butanoic acid]
